Patent US20080063660A1, “Method to reduce the physiologic effects of drugs on mammals” (Anarco, Inc., priority 1993, published 2008)
Counter-ions that a name gives are not always drawn.

Columns and labels:
[1] = test system: rabbits; assay: intravenous cocaine-HCl challenge of rabbits immunized with COALB
Protocol: Rabbits were immunized with COALB by subcutaneous injection of 100 μg of the benzoylecgonine-conjugated immunogen every two weeks for a period of two months (four injections). Freund's complete adjuvant was used in the first injection and Freund's incomplete adjuvant was utilized for subsequent injections.

[2] = stated in brackets beside the i.v. challenge dose; cited from earlier work

COC(=O)[C@H]1[C@@H](OC(=O)c2ccccc2)C[C@@H]2CC[C@H]1N2C [cocaine-HCl]
physiologic/toxic effects of cocaine in control (un-immunized) rabbits ([1]; cocaine-HCl 2 mg/kg i.v. in sterile saline): marked grande maul convulsions
time to recovery of control rabbits after cocaine ([1]; cocaine-HCl 2 mg/kg i.v., un-immunized rabbits): 10 to 15 min
LD50 [2]: 12 mg/kg
